The values that follow come from US8586034B2, “Cytomegalovirus disintegrin-like peptides” (priority 2004, dated 2013).

One test has as its system HCMV strain AD169. Kind of test: Virus entry assay, HCMV infectivity by IE gene expression. Format: cell-based, Human cytomegalovirus. The following applies: NHDFs treated prior to HCMV challenge. The method, then: (§1) For CMV entry assays, subconfluent cells were grown on glass coverslips in 12-well plates. Integrin neutralizing antibodies or peptides were incubated in serum-free DMEM with cell monolayer for 30 minutes at 37° C. Cells were washed with phosphate-buffered saline (PBS) and incubated with HCMV strain AD169, MCMV Smith strain, or MCMV-GFP for 60 minutes at 37° C. Any non-penetrated virus was inactivated with low-pH citrate buffer (40 mM citric acid, 10 mM KCl, 135 mM NaCl, pH 3.0). The cells were incubated 20-24 hours at 37° C. in DMEM supplemented with 2% bovine calf serum (BCS). […] Experiments were performed in triplicate with a minimum of 1000 cells scored per coverslip. […] Cells were incubated 6 hours at 37° C. in DMEM supplemented with 10% BCS prior to lysis (100 mM sodium phosphate, 10 mM KCl, 1 mM magnesium sulfate, 0.1% NP-40, pH 7.4). β-galactosidase activity was measured by addition of o-nitrophenyl-β-D-galactopyranoside (ONPG) and the absorbance was monitored at 420 nm.
FIG. 2A presents the results of a series of assays wherein NHDFs were treated with HCMV gB disintegrin-like peptide, gB disintegrin-like Null peptide, RGD, or RGE peptide prior to HCMV challenge (as indicated in the FIG. 2A). Infectivity was determined by IE gene expression. […]

The subject of the next test is HCMV. Briefly: Viral payload delivery, pp65 localization. In kind it is cell-based, Human cytomegalovirus. The following applies: human fibroblasts treated, then infected with HCMV. The method, then: as §1
Next, an assay was performed that directly measured delivery of an internal virion component. […] FIG. 6B is a histogram showing the results of a series of assays wherein human fibroblasts were treated with various integrin-blocking agents, infected with HCMV, and then assayed for viral payload as measured by pp65 localization. […]

The subject of the next test is MCMV Smith strain. Briefly: Virus entry assay, MCMV infectivity by e1-positive cells. Format: cell-based, Murine cytomegalovirus. The following applies: mouse fibroblasts (murine 3T3) treated with peptide. The method, then:
as §1, with “nm. […]” for “nm.”
FIG. 4B is a histogram showing the results of an assay wherein GD25, GD25β1 and 3T3 cells were treated with β1, β3, and β1+β3 antibodies, followed by MCMV infection. As described above, infectivity was determined by scoring e1-(early protein) positive cells. […]

The subject of another test is HSV-1(KOS)gL86. Briefly: HSV entry assay (β-galactosidase activity). Format: cell-based, herpes simplex virus-1. The following applies: NHDF cells treated with peptide. The method, then:
For CMV entry assays, subconfluent cells were grown on glass coverslips in 12-well plates. Integrin neutralizing antibodies or peptides were incubated in serum-free DMEM with cell monolayer for 30 minutes at 37° C. Cells were washed with phosphate-buffered saline (PBS) and incubated with HCMV strain AD169, MCMV Smith strain, or MCMV-GFP for 60 minutes at 37° C. Any non-penetrated virus was inactivated with low-pH citrate buffer (40 mM citric acid, 10 mM KCl, 135 mM NaCl, pH 3.0). The cells were incubated 20-24 hours at 37° C. in DMEM supplemented with 2% bovine calf serum (BCS). Immunofluorescence analysis was performed as previously described^28 with either mouse anti-IE monoclonal antibody 1203, mouse anti-pp65 monoclonal antibody or rabbit anti-MCMV e1 polyclonal, followed by detection with a fluorescein-conjugated goat anti-mouse secondary or a fluorescein-conjugated goat anti-rabbit secondary antibody. Nuclei were stained with 300 nM 4′,6-diamidino-2-phenylindole (DAPI). Experiments were performed in triplicate with a minimum of 1000 cells scored per coverslip. […] Cells were incubated 6 hours at 37° C. in DMEM supplemented with 10% BCS prior to lysis (100 mM sodium phosphate, 10 mM KCl, 1 mM magnesium sulfate, 0.1% NP-40, pH 7.4). β-galactosidase activity was measured by addition of o-nitrophenyl-β-D-galactopyranoside (ONPG) and the absorbance was monitored at 420 nm. […]

A further test has as its system HCMV AD 169. Kind of test: Virus binding assay (HCMV attachment, gB ELISA). The following applies: NHDF, 4° C.; 1 mM gB disintegrin-like peptide, 1:50 DE9, α2 and α6 integrin antibodies 20 μg/mL. In kind it is cell-based, Human cytomegalovirus. The method, then: NHDF cells were grown in 96-well plates and treated with integrin-neutralizing antibodies, peptides, or heparin for 60 minutes at 4° C. Cells were then challenged with HCMV AD 169 at a multiplicity of infection (MOI) of 5 pfu/cell for 60 minutes at 4° C. Unbound virus was removed and cells were washed and fixed with 3% paraformaldehyde. Bound HCMV was detected with monoclonal antibody 27-78, horseradish peroxidase (HRP)-conjugated goat anti-mouse secondary antibody, and ImmunoPure TMB Substrate Kit (Pierce, Rockford, Ill.). Absorbance was measured at 450 nm. All experiments were performed in triplicate.
During virus infection, integrins are utilized as primary viral attachment receptors or as post-attachment (fusion-activating) or internalization receptors.^11 To determine at which step in the HCMV entry pathway integrins are functioning, cell binding (i.e., attachment) experiments were performed, as well as assays to measure viral payload delivery into the cytoplasm (internalization). For the binding assays, virus was bound at 4° C. to allow for stable virus binding, but to restrict fusion and internalization. The results are depicted in FIG. 6A. […] Attachment was measured by gB ELISA.
For orientation: ELISA stands for enzyme-linked immunosorbent assay.

The next test has as its system diI-labeled HCMV. In kind it is cell-based, Human cytomegalovirus. The following applies: gBDLD or BSA 320 μg/mL, soluble heparin 50 μg/mL; 24 hours post-infection.

“AVCSMAGGTAAIRAERNIIC (listed as Human cytomegalovirus) [gB disintegrin-like null peptide, null peptide with alanine substitutions in the disintegrin-like consensus residues, reference compound]”: the “HCMV infectivity (IE gene expression)” value in the test with HCMV strain AD169 is “able to infect”. In addition, the “uptake of pp65 tegument protein” value in the test on HCMV is reported as “not”.
Turning to “RVCSMAQGTDLIRFERNIIC (listed as Human cytomegalovirus) [gB disintegrin-like peptide, synthetic 20 amino acid peptide encompassing the HCMV gB disintegrin-like domain]”, in the test with HCMV strain AD169, the “HCMV infectivity (IE gene expression)” value is “dose-dependent inhibitory response”. In the test on MCMV Smith strain, the MCMV infectivity entry is reported as “dramatic reduction in MCMV infectivity”. Further, the “ability of HSV-1 to infect cells” value with HSV-1(KOS)gL86 is listed as “no effect”. For the same substance, the “HCMV attachment (gB ELISA)” value in the test on HCMV AD 169 is “no effect”. Also, the “uptake of pp65 tegument protein” value with HCMV is reported as “little uptake”.
Regarding “heparin [soluble heparin, reference compound]”, the “HCMV attachment (gB ELISA)” value in the test with HCMV AD 169 is on record as “prevented virus attachment”. Further, in the test with diI-labeled HCMV, the “HCMV fusion (dye transfer) and gene expression” value is “blocks HCMV attachment”.
